The test relates to HCV 1b_Huh-Luc/Neo-ET cell line persistently expressing a bicistronic genotype 1b replicon in Huh 7 cells. The test is described as follows: HCV replicon assay (luciferase readout). It counts as cell-based. The following applies: Hepatitis C virus, Huh-7, 72 h, read-out: Inhibition of HCV genotype 1b. The method in brief: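 Huh 7 cells carrying a genotype 1b luciferase/neo replicon treated in triplicate for 72 h, then luciferase activity measured. Signal expressed as % of control; EC50 from four-parameter logistic fit, determined several times.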

Turning to `COC(=O)N[C@@H](C(=O)N1CCC[C@H]1c1ncc(C#Cc2ccc(C#Cc3cnc([C@@H]4CCCN4C(=O)[C@@H](c4ccccc4)N4CCCC4)[nH]3)cc2)[nH]1)c1ccccc1` [Compound 311], the EC50 was less than 1 nM.

Turning to `COC(=O)N[C@H](C(=O)N1CCC[C@H]1c1ncc(C#Cc2ccc(-c3ccc4nc([C@@H]5CCCN5C(=O)[C@@H](NC(=O)OC)C(C)C)[nH]c4c3)cc2)[nH]1)C(C)C` [Compound 1084], the EC50 was less than 1 nM. Consider `COC(=O)N[C@@H](CC(C)C)C(=O)N1CCC[C@H]1c1ncc(-c2ccc(C#Cc3ccc4nc([C@@H]5CCCN5C(=O)[C@H](CC(C)C)NC(=O)OC)[nH]c4c3)cc2)[nH]1` [Compound 1067], for which the EC50 is less than 1 nM. Under `C[C@H](NC(=O)[C@@H]1CCCN1C(=O)[C@H](NC(=O)C1CC1)c1ccccc1)c1ccc(C#Cc2ccc(-c3cnc([C@@H]4CCCN4C(=O)[C@H](NC(=O)C4CC4)c4ccccc4)[nH]3)cc2)cc1` [Compound 191] stands less than 1 nM. Regarding `COC(=O)NC(C)(C)C(=O)N1CCC[C@H]1c1ncc(-c2ccc(C#Cc3ccc4nc([C@@H]5CCCN5C(=O)C(C)(C)NC(=O)OC)[nH]c4c3)cc2)[nH]1` [Compound 1050], the EC50 lay within 10 to 999 nM. Under `C[C@H](NC(=O)[C@@H]1CCCN1C(=O)[C@H](NC(=O)OC(C)(C)C)c1ccccc1)c1ccc(C#Cc2ccc(-c3cnc([C@@H]4CCCN4C(=O)[C@H](NC(=O)OC(C)(C)C)c4ccccc4)[nH]3)cc2)cc1` [Compound 169] stands 1 to 9.9 nM.

With `CC(C)(C)OC(=O)N[C@@H](C(=O)N1CCC[C@H]1c1ncc(-c2ccc(C#Cc3ccc(-c4cnc([C@@H]5CCCN5C(=O)[C@H](NC(=O)OC(C)(C)C)c5ccccc5)[nH]4)cc3)cc2)[nH]1)c1ccccc1` [Compound 150], the EC50 was less than 1 nM.

On to `C(#Cc1ccc2nc([C@@H]3CCCN3)[nH]c2c1)c1ccc(-c2cnc([C@@H]3CCCN3)[nH]2)cc1` [Compound 1035], for which the EC50 fell in the range of 10 to 999 nM. For the compound `CC(C)[C@H](NC(=O)N1CCC(C)(O)CC1)C(=O)N1CCC[C@H]1c1ncc(-c2ccc(C#Cc3ccc(-c4cnc([C@@H]5CCCN5C(=O)[C@@H](NC(=O)N5CCC(C)(O)CC5)C(C)C)[nH]4)cc3)cc2)[nH]1` [Compound 966], the EC50 was 10 to 999 nM.

As to `O=C(N[C@@H](C(=O)N1CCC[C@H]1c1ncc(-c2ccc(C#Cc3ccc(-c4cnc([C@@H]5CCCN5C(=O)[C@@H](c5ccccc5)N5CCCCC5)[nH]4)cc3)cc2)[nH]1)c1ccccc1)C1CC1` [Compound 208], the EC50 was less than 1 nM. For `CC(C)[C@H](NC(=O)N1CCOCC1)C(=O)N1CCC[C@H]1c1ncc(-c2ccc(C#Cc3ccc(-c4cnc([C@@H]5CCCN5C(=O)[C@@H](NC(=O)N5CCOCC5)C(C)C)[nH]4)cc3)cc2)[nH]1` [Compound 285] the value was greater than 1000 nM; for `C[C@@H](c1ncc(-c2ccc(C#Cc3ccc(-c4cnc([C@@H]5CCCN5C(=O)[C@H](NC(=O)OC(C)(C)C)c5ccccc5)[nH]4)cc3)cc2)[nH]1)N(C)C(=O)[C@H](NC(=O)OC(C)(C)C)c1ccccc1` [Compound 265], less than 1 nM; for `O=C(N[C@@H](C(=O)N1CCC[C@H]1c1cc(-c2ccc(C#Cc3ccc(-c4cnc([C@@H]5CCCN5C(=O)[C@H](NC(=O)C5CC5)c5ccccc5)[nH]4)cc3)cc2)n[nH]1)c1ccccc1)C1CC1` [Compound 212], less than 1 nM. As for `C[C@H](NC(=O)[C@@H]1CCCN1C(=O)[C@H](NC(=O)OC(C)(C)C)c1ccccc1)c1ccc(C#Cc2cnc([C@@H]3CCCN3C(=O)[C@H](NC(=O)OC(C)(C)C)c3ccccc3)[nH]2)cc1` [Compound 130], the EC50 was in the range of 10 to 999 nM. Under `COC(=O)N[C@H](C(=O)N1CCC[C@H]1c1nc(-c2ccc3cc(C#Cc4cnc([C@@H]5CCCN5C(=O)[C@H](NC(=O)OC)c5ccccc5)[nH]4)ccc3c2)c[nH]1)C(C)C` [Compound 1077] stands less than 1 nM; under `CC(=O)N[C@@H](C(=O)N1CCC[C@H]1c1ncc(-c2ccc(C#Cc3ccc(-c4cnc([C@@H]5CCCN5C(=O)[C@H](NC(C)=O)c5ccccc5)[nH]4)cc3)cc2)[nH]1)c1ccccc1` [Compound 158], less than 1 nM; under `COC(=O)N[C@@H](C(=O)N1CCC[C@H]1c1ncc(-c2ccc(C#Cc3ccc(-c4cnc([C@@H]5CCCN5C(=O)C5(c6ccccc6)CC5)[nH]4)cc3)cc2)[nH]1)c1ccccc1` [Compound 257], less than 1 nM. Regarding `COC(=O)N[C@H](C(=O)N1CCC[C@H]1c1ncc(-c2ccc(C#Cc3ccc(-c4cnc([C@@H]5CCCN5C(=O)[C@@H](Nc5cccnc5)C(C)C)[nH]4)cc3)cc2)[nH]1)C(C)C` [Compound 995], the EC50 is less than 1 nM. In the case of `COC(=O)N[C@H](C(=O)N1CCC[C@H]1c1nc2ccc(C#Cc3ccc4nc([C@@H]5CCCN5C(=O)[C@@H](NC(=O)OC)C(C)C)[nH]c4c3)cc2[nH]1)C(C)C` [Compound 852], the EC50 is less than 1 nM. As to `COC(=O)N[C@H](C(=O)N1CCC[C@H]1c1ncc(-c2ccc(C#Cc3ccc(-c4cnc([C@@H]5CCCN5C(=O)[C@H](NC(=O)N5CCC(C)(O)CC5)c5ccccc5)[nH]4)cc3)cc2)[nH]1)C(C)C` [Compound 992], the EC50 is less than 1 nM. For `CC(C)[C@@H](C(=O)N1CCC[C@H]1c1ncc(-c2ccc(C#Cc3ccc(-c4cnc([C@@H]5CCCN5C(=O)[C@H](C(C)C)N5CCOC5=O)[nH]4)cc3)cc2)[nH]1)N1CCOC1=O` [Compound 1006], the EC50 was 10 to 999 nM. Take `CC(C)[C@@H](NC(=O)OC(C)(C)C)C(=O)N1CCC[C@H]1c1ncc(C#Cc2ccc(C#Cc3cnc([C@@H]4CCCN4C(=O)[C@H](NC(=O)OC(C)(C)C)C(C)C)[nH]3)cc2)[nH]1` [Compound 301]: the EC50 was greater than 1000 nM. Regarding `COC(=O)N[C@@H](C(=O)N1CCC[C@H]1c1ncc(-c2ccc(C#Cc3ccc(-c4cnc([C@@H]5CCCN5C(=O)[C@H](NC(=O)[C@@H]5CCCO5)c5ccccc5)[nH]4)cc3)cc2)[nH]1)c1ccccc1` [Compound 195], the EC50 is less than 1 nM.

`COC(=O)N[C@@H](C(=O)N1CCC[C@H]1c1ncc(C#Cc2ccc(C#Cc3cnc([C@@H]4CCCN4C(=O)[C@@H](c4ccccc4)N4CCOCC4)[nH]3)cc2)[nH]1)c1ccccc1` [Compound 313]: the EC50 was less than 1 nM. For `CC(C)(C)OC(=O)N[C@@H](C(=O)N1CCC[C@H]1c1ncc(-c2ccc(C#Cc3ccc4nc([C@@H]5CCCN5C(=O)[C@H](NC(=O)OC(C)(C)C)c5ccccc5)[nH]c4c3)cc2)[nH]1)c1ccccc1` [Compound 801] the value was less than 1 nM; for `COC(=O)N[C@@H](C(=O)N1CCC[C@H]1c1ncc(-c2ccc(C#Cc3ccc(-c4cnc([C@@H]5CCCN5C(=O)[C@H](NC(=O)N5CCCC5)c5ccccc5)[nH]4)cc3)cc2)[nH]1)c1ccccc1` [Compound 243], less than 1 nM. Take `COC(=O)N[C@@H](Cc1ccccc1)C(=O)N1CCC[C@H]1c1ncc(-c2ccc(C#Cc3ccc4nc([C@@H]5CCCN5C(=O)[C@H](Cc5ccccc5)NC(=O)OC)[nH]c4c3)cc2)[nH]1` [Compound 1045]: the EC50 was less than 1 nM. For `COC(=O)N[C@@H](C(=O)N1CCC[C@H]1c1ncc(-c2ccc(C#Cc3ccc(-c4cnc([C@@H]5CCCN5C(=O)[C@H](NC(=O)N5CCC[C@@H]5CO)c5ccccc5)[nH]4)cc3)cc2)[nH]1)c1ccccc1` [Compound 254], the EC50 is less than 1 nM. Under `CC(C)[C@@H](NC(=O)C1CC1)C(=O)N1CCC[C@H]1C(=O)Nc1ccc(C#Cc2cnc([C@@H]3CCCN3C(=O)[C@H](NC(=O)C3CC3)C(C)C)[nH]2)cc1` [Compound 116] stands 1 to 9.9 nM.

On to `COC(=O)N[C@@H](C(=O)N1CCC[C@H]1c1ncc(C#Cc2ccc(-c3ccc(-c4cnc([C@@H]5CCCN5C(=O)[C@H](NC(=O)C5CC5)c5ccccc5)[nH]4)cc3)cc2)[nH]1)c1ccccc1` [Compound 754], for which the EC50 is less than 1 nM. As for `CC(C)[C@@H](NC(=O)C1CC1)C(=O)N1CCC[C@H]1c1ncc(C#Cc2ccc(C#Cc3cnc([C@@H]4CCCN4C(=O)[C@H](NC(=O)C4CC4)C(C)C)[nH]3)cc2)[nH]1` [Compound 302], the EC50 was greater than 1000 nM. With `COC(=O)N[C@H](C(=O)N1CCC[C@H]1c1ncc(-c2ccc(C#Cc3ccc(-c4cnc([C@@H]5CCCN5C(=O)[C@@H](c5ccccc5)N5CCOCC5)[nH]4)cc3)cc2)[nH]1)C(C)C` [Compound 987], the EC50 is less than 1 nM.

In the case of `COC(=O)N[C@@H](C(=O)N1CCC[C@H]1c1ncc(-c2ccc(C#Cc3ccc(-c4cnc([C@@H]5CCCN5C(=O)[C@H]5CCCO5)[nH]4)cc3)cc2)[nH]1)c1ccccc1` [Compound 177], the EC50 is less than 1 nM. On to `COC(=O)N[C@H](C(=O)N1CCC[C@H]1c1ncc(-c2ccc(C#Cc3ccc(-c4cnc([C@@H]5CCCN5C(=O)[C@@H](c5ccccc5)N5CCN(CCO)CC5)[nH]4)cc3)cc2)[nH]1)C(C)C` [Compound 958], for which the EC50 was less than 1 nM.

In the case of `C[C@@H](NC(=O)OC(C)(C)C)C(=O)N1CCC[C@H]1c1ncc(-c2ccc(C#Cc3ccc(-c4cnc([C@@H]5CCCN5C(=O)[C@@H](C)NC(=O)OC(C)(C)C)[nH]4)cc3)cc2)[nH]1` [Compound 151], the EC50 was in the range of 10 to 999 nM.

Regarding `COC(=O)N[C@@H](C(=O)N1CCC[C@H]1c1ncc(-c2ccc(C#Cc3ccc(-c4cnc([C@@H]5CCCN5C(=O)[C@H](NC(=O)OC)c5ccccc5)[nH]4)cc3)cc2)[nH]1)c1ccccc1` [Compound 156], the EC50 is less than 1 nM. Turning to `CCN(CC)[C@@H](C(=O)N1CCC[C@H]1c1ncc(-c2ccc(C#Cc3ccc(-c4cnc([C@@H]5CCCN5C(=O)[C@H](NC(=O)OC)c5ccccc5)[nH]4)cc3)cc2)[nH]1)c1ccccc1` [Compound 175], the EC50 is less than 1 nM. `COC(=O)N[C@@H](C(=O)N1CCC[C@H]1c1ncc(C#Cc2ccc(-c3cnc([C@@H]4CCCN4C(=O)[C@@H](c4ccccc4)N(C)C)[nH]3)cc2)[nH]1)c1ccccc1` [Compound 123]: the EC50 was less than 1 nM.

For `COC(=O)N[C@@H](C(=O)N1CCC[C@H]1c1ncc(C#Cc2ccc(C#Cc3cnc([C@@H]4CCCN4C(=O)[C@@H](c4ccccc4)N(C)C)[nH]3)cc2)[nH]1)c1ccccc1` [Compound 314], the EC50 is less than 1 nM. For `COC(=O)N[C@H](C(=O)N1CCC[C@H]1c1nc2ccc3cc(C#Cc4ccc(-c5cnc([C@@H]6CCCN6C(=O)[C@@H](NC(=O)OC)C6CCOCC6)[nH]5)cc4F)ccc3c2[nH]1)C(C)C` [Compound 1099], the EC50 was less than 1 nM.

The values above are taken from US8865756B2, “Inhibitors of HCV NS5A” (Presidio Pharmaceuticals, Inc., priority 2008, dated 2014).
